Measurements taken from patent US20230058489A1, “COMBINATION COMPRISING A TIM-3 INHIBITOR AND A HYPOMETHYLATING AGENT FOR USE IN TREATING MYELODYSPLASTIC SYNDROME OR CHRONIC MYELOMONOCYTIC LEUKEMIA” (Novartis AG, priority 2020, published 2023).
Entries after “also recorded” stand apart in the source; their conditions may differ.

Legend:
[1] = test system: TIM-3-overexpressing Raji cells; experiment: Antibody-dependent cellular phagocytosis (ADCP) by PMA-differentiated THP-1 cells, flow cytometry; assay type: cell-based, human; conditions: E:T ratio 1:5, 30-45 minutes, FIG. 2
Method: THP-1 effector cells (a human monocytic AML cell line) were differentiated into phagocytes by stimulation with 20 ng/ml phorbol 12-myristate 13-acetate (PMA) for two to three days at 37° C., 5% CO2. PMA-stimulated THP-1 cells were washed in FACS Buffer (PBS with 2 mM EDTA) in the flask and then detached by treatment with Accutase (Innovative Cell Technologies). The target TIM-3-overexpressing Raji cells were labelled with 5.5 μM CellTrace CFSE (ThermoFisherScientific) as per manufacturer's instructions. […] Co-cultures were incubated for 30-45 minutes at 37° C., 5% CO2. Phagocytosis was then stopped with a 4% Formaldehyde fixation (diluted from 16% stock, ThermoFisherScientific), and cells were stained with an APC-conjugated anti-CD11c antibody (BD Bioscience). ADCP was measured by a flow cytometry based assay on a BD FACS Canto II. Phagocytosis was evaluated as a percentage of the THP-1 cells double positive for CFSE (representing the phagocytosed Raji cell targets) and CD11c from the THP-1 (effector) population. […] Negative control IgG4 antibody is shown in triangles.

THP-1 AML cells = experiment: Co-culture of THP-1 cells with anti-CD3 activated PBMCs, Incucyte killing assay; assay type: cell-based, human; conditions: 1 μg/mL, THP-1 cells pre-treated with decitabine (250 or 500 nM, 5 days), FIG. 4
Method: THP-1 cells were plated in complete RPMI-1640 (Gibco) media (supplemented with 2 mM glutamine, 100 U/ml Pen-Strep, 10 mM HEPES, 1 mM NaPyr, and 10% fetal bovine serum (FBS)). Decitabine (250 or 500 nM; supplemented to media daily for five days) or DMSO control were added for a 5-day incubation at 37° C., 5% CO2. Two days after plating THP-1 cells, healthy human donor peripheral blood mononuclear cells (PBMCs; Medcor) were isolated from whole blood by centrifugation of sodium citrate CPT tubes at 1,800×g for 20 minutes. At the completion of the spin, the tube was inverted 10 times to mix the plasma and PBMC layers. Cells were washed in 2× volume of PBS/MACS Buffer (Miltenyi) and centrifuged at 250×g for 5 minutes. Supernatant was aspirated, and 1 mL of PBS/MACS Buffer was added following by pipetting to wash the cell pellet. 19 mL of PBS/MACS Buffer were added to wash, followed by a repeat of the centrifugation. Supernatant was aspirated, and the cell pellet was resuspended in 1 mL of complete media, followed by pipetting to a single cell suspension, and the volume was brought up to 10 mL with complete RPMI. 100 ng/mL anti-CD3 (eBioscience) was added to the media for a 48-hour stimulation at 37° C., 5% CO2. After 5 days culture with decitabine or DMSO, THP-1 cells were harvested and labeled with CellTracker™ Deep Red Dye (ThermoFisher) following manufacturer's instructions.

FcγRIIa (CD32a) = biological target: T1, FcγRIIa (CD32a) (Homo sapiens, UniProt P12318); experiment: Separate FcγRIIa engagement assay; assay type: cell-based
T1 sequence (P12318 34-317): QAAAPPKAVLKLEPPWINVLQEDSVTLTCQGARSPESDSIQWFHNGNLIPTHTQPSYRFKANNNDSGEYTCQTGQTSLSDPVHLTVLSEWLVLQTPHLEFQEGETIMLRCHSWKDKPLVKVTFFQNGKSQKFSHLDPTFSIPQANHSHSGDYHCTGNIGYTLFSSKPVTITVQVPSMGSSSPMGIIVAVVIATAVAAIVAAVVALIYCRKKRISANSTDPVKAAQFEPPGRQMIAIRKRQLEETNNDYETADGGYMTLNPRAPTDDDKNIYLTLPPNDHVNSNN

## MBG453: high-affinity, ligand-blocking, humanized anti-TIM-3 IgG4 antibody, disclosed in WO2015/117002
[1]
  phagocytosis (percentage of THP-1 cells double positive for CFSE and CD11c): modest; also recorded: enhanced THP-1 cell phagocytosis of TIM-3+ Raji cells in a dose-dependent manner
THP-1 AML cells
  killing of THP-1 cells by anti-CD3 activated PBMCs: further enhanced
FcγRIIa (CD32a)
  engagement of FcγRIIa (CD32a): did not engage
